Experimental data as given in patent US11999964B2, “Synthetic mammalian signaling circuits for robust cell population control” (California Institute of Technology, priority 2020, dated 2024).
pEC50: −log10 of the molar value.

Key:
Type in all cases: cell-based, Hamster
[1] = system: Paradaux cells; test: Paradaux cell survival versus auxin with AP1903 and/or blasticidin, and model parameter fitting
Text: FIGS. 4A-4G depict non-limiting exemplary embodiments and data showing paradoxical architecture reduces susceptibility to cheater mutations. (FIG. 4A) In the paradoxical architecture, the same signal inhibits growth (red pathway) and death (green pathway). This can produce a window of auxin concentrations leading to positive net growth (light blue region). Without mutation, the paradoxical and negative feedback circuits operate similarly around a stable equilibrium point of large population size (solid dots in the left panels). Mutations that eliminate sensing make both death and growth independent of auxin concentration (right panels), which selects against mutations in the paradoxical circuit due to negative net growth (FIG. 4B) In the paradoxical circuit implementation, auxin regulates growth through Blast^R (upper path), and also regulates apoptosis via iCasp9 (lower path), each with distinct fluorescent protein readouts and a small molecule (blasticidin and AP1903) as a control switch. (FIG. 4C) The full paradoxical circuit can be encoded as a single open reading frame, with distinct proteins separated by T2A peptides (grey squares). (FIG. 4D) Paradaux cells respond to auxin in a biphasic manner. Cells were seeded at about 1/8 confluence (grey dashed line) and pretreated with NAA for one day, then treated with combinations of NAA, blasticidin (20 μg/ml) and AP1903 (50 nM) for another 3 days, and imaged. Pink, green, and blue dots show the mean and standard deviation of three replicates in the presence of AP1903, blasticidin, or both, respectively. […] Blue dashed lines indicate predictions for the fully operational circuit based on the green and red curves. Dotted blue line is the model prediction when the synergy term is included. (FIG. 4E) Different classes of behavior can occur in different parameter regimes. Using the model auxin-dependent growth was simulated in different parameter regimes and identified five distinct regimes (indicated schematically as insets). Using this classification, growth curves were numerically analyzed and sorted for each concentration of blasticidin and AP1903 (central plot). The blue dot indicates the blasticidin and AP1903 concentrations used in the time-lapse movie analysis. The grey region indicates curves that could not be classified into one of these categories (0.68% of total, see FIG. 9F and Supplementary text). (FIG. 4F). For each expression level, the percent of blasticidin-AP1903 concentrations that generate paradoxical behavior was analyzed, similar to FIG. 4E. Optimizing the expression and ratio of Blast R and iCasp9 can widen the paradoxical regime. (FIG. 4G) Dynamic simulations show the Paradoxical Control circuit provides evolutionary robustness. For the negative feedback system, tic and βC and βsyn are set to zero. Mutated strains were simulated with auxin (A) fixed to zero, representing sensing deficient mutations. On day 25, 50, 75 and 100, mutant cells (1% of the population cap) were introduced into the simulated system to test robustness to mutations. These mutants take over in the negative feedback circuit (top) but not the paradoxical circuit (bottom). Dashed line indicates carrying capacity.
To encode the Paradaux circuit, a single multi-protein construct expressing osTIR1, the auxin-regulated iCasp9 system, and the auxin-regulated Blast R construct described above was designed (FIG. 4C). To eliminate one potential mechanism for evolutionary escape, Blast^R was positioned at the C-terminal end of the construct, so that premature stop codon mutations would deactivate Blast®, decreasing survival. The construct was integrated to create stable monoclonal CHO-K1 cell lines for further analysis. […]

[2] = molecular target: T1, mCherry-AID-Blast R (UniProt P93830+Q7XVM8, DEL133-229); test: Auxin regulation of mCherry-AID-BlastR fluorescence in Receiver cells; conditions: Receiver CHO-K1 cells, two days of treatment, Michaelis-Menten fit; read-out: EC50, reduction of mCherry fluorescence
T1 construct: expressed in transfected cells; 'Receiver' line
Text: (§1) FIGS. 1A-1D depict non-limiting exemplary embodiments and data showing the plant hormone auxin allows private-channel mammalian cell-cell communication. […] Middle: Engineered cells that can send and receive the signal simultaneously can respond to their own population size. Right: coupling the sending-receiving function with cell survival in a negative feedback can enable population control. (FIG. 1B) Auxin Receiver cells constitutively express a fluorescent target fusion protein, mCherry-AID-BlastR, as well as the F-box protein osTIR1. […] The response of mCherry fluorescence to two different species of auxin (IAA and NAA) was measured after two days of treatment (dots). […] Cells were counted by flow cytometry (n=3, error bar=standard deviation). […]
To establish and characterize auxin regulation of mammalian cell growth, auxin sensing was coupled to drug resistance and fluorescence. Specifically, blasticidin S deaminase (Blast R), whose protein product is necessary for survival in the presence of blasticidin, was fused to AID and mCherry domains, allowing auxin-dependent degradation and fluorescent readout of protein concentration, respectively. […]
To fit the mCherry's response curve to auxin and population (FIG. 1C, FIGS. 3A and 3B; FIGS. 7A and 7B), it was assumed the log of fluorescence (F) follows an inverted Michaelis-Menten's equation as follow: […]

[3] = system: Receiver cell line (CHO-K1 cells); test: Receiver cell survival with IAA and blasticidin; conditions: IAA added to media containing blasticidin; four days; dose-dependent
Text: as §1
Flow cytometry by trypsinizing 0.25% trypsin-EDTA (GIBCO) for 1 min at room temperature. […] Cells were then filtered through a 40 μm cell strainer and analyzed by flow cytometry (MACSQuant VYB, Miltenyi or CytoFLEX, Beckman Coulter). […] All fluorescence data were acquired as the median value of the gated population. For counting cells, 1000 CountBright beads (Life Technologies) were spiked into the sample before filtering, gated out by their fluorescence in analysis and used to estimate cell number in each sample.

[4] = system: parental cells; test: Parental cells cultured with IAA and blasticidin (pilot); conditions: cultured in the presence of IAA and blasticidin
Procedure: FIGS. 14A-14D depict non-limiting exemplary data showing simple negative feedback enables cell density-dependent killing. (FIGS. 14A-14B) Long-term culture traces under 50 μg/ml and 100 μg/ml blasticidin conditions. Experimental setups are the same as FIG. 11B. […] A cell line collected from the experiment described in (FIG. 14D) was cultured, in parallel with the parental line, with different IAA and blasticidin combinations for 4 days. Survival rates were normalized to the parental line, and each bar is from a triplet. […] Cells were seeded into a 24-well imaging plate with 50 μg/ml of blasticidin solely or with 100 μM IAA or IAM, and no cells survived the combined IAA and blasticidin treatment. Each trace reflects an average of 12 positions in a sample well.
First, resistance mutations occurred in separately maintained, long-term cultures, and therefore could not spread from one culture to another. […] While sensing mutations are likely responsible at least in part for the mutant growth advantage, their specific effects in a parental background was not characterized. […] However, as described herein, a paradoxical circuit designs provide robust population control.

[5] = molecular target: T1, mCherry-AID-Blast R; test: Conditioned media from Sender-Receivers applied to Receivers; conditions: 2 days conditioning, diluted into an equal volume of fresh media
Procedure: FIGS. 2A-2E depict non-limiting exemplary embodiments and data showing Sender-Receiver cells produce and respond to auxin. […] (FIG. 2B) Stable expression of iaaH in Receiver cells allows them to produce auxin from precursors (blue square). (FIG. 2C) Conditioned media experiment (schematic). Fresh culture media with or without precursors was added to plated sender cells, collected, mixed at 1:1 ratio with standard fresh media, and then applied to receiver cells. (FIG. 2D) iaaH can produce IAA and NAA auxins from IAM and NAM precursors, respectively. Standard media, with or without precursors, was conditioned by Sender-Receivers or standard CHO-K1 cells for 48 hours and applied to Receiver cells for another two days. Receivers cultured with fresh media with or without auxins were also assayed as controls. Data are normalized to Receiver cell fluorescence treated with media conditioned by CHO-K1 cells. Error bars represent standard deviation of 3 replicates. (FIG. 2E) Auxin senders can generate an auxin gradient. Sender-Receivers (green) were seeded within a 7 mm×7 mm square at the edge of a 60 mm dish, and Receivers were plated everywhere else (no fluorescence or red). One day after plating, the media was replaced with fresh media containing low-melting-point agarose, with or without IAM (Methods). Plates were imaged after two additional days of culture. […]

[6] = system: Sender-Receiver cells; test: Quorum sensing of Sender-Receiver cells (reporter fluorescence versus population density); conditions: Sender-Receiver cells without PIN2, two days
Procedure: FIGS. 3A-3D depict non-limiting exemplary embodiments and data showing Sender-Receiver cells sense their population density and regulate survival accordingly. (FIGS. 3A-3B) Sender-Receiver and Sender-Receiver-PIN2 cells perform quorum sensing. For both plots, cells were seeded at different densities and induction conditions, with either of the two auxins (saturating signaling) or their precursors (to allow quorum sensing). mCherry fluorescence was assayed after two days as a reporter of auxin sensing. Inset: Cells in B express the transporter PIN2, which actively exports auxin. Data were fitted onto an inverted Michaelis-Menten's function on log scale (see FIG. 7B for fitted parameters). (FIG. 3C) Sender-Receiver-PIN2 cells sense population size per unit volume. Cells were grown for two days at 6 different densities for each media volume, and cultured on a rocker for better mixing. (FIG. 3D) Sender-Receiver-PIN2 triggers cell death at high population density. […]
It was next asked whether Sender-Receiver cells could sense their own population density by producing auxin at a rate proportional to population size and sensing auxin concentration in the local environment (quorum sensing, FIG. 1A, middle panel). The dependence of reporter expression on cell population density in the presence of concentrations of each precursor sufficient to generate saturating levels of auxin was analyzed. […]

[7] = system: Sender-Receiver-PIN2; test: Density-dependent survival of Sender-Receiver-PIN2 cells in blasticidin; conditions: media with blasticidin, 4 days
Procedure: FIGS. 3A-3D depict non-limiting exemplary embodiments and data showing Sender-Receiver cells sense their population density and regulate survival accordingly. (FIGS. 3A-3B) Sender-Receiver and Sender-Receiver-PIN2 cells perform quorum sensing. For both plots, cells were seeded at different densities and induction conditions, with either of the two auxins (saturating signaling) or their precursors (to allow quorum sensing). mCherry fluorescence was assayed after two days as a reporter of auxin sensing. Inset: Cells in B express the transporter PIN2, which actively exports auxin. Data were fitted onto an inverted Michaelis-Menten's function on log scale (see FIG. 7B for fitted parameters). (FIG. 3C) Sender-Receiver-PIN2 cells sense population size per unit volume. Cells were grown for two days at 6 different densities for each media volume, and cultured on a rocker for better mixing. (FIG. 3D) Sender-Receiver-PIN2 triggers cell death at high population density. Cells were seeded at different confluence levels, grown for four days in media with 50 μg/ml blasticidin and IAM, IAA, or no auxin (Error bars are standard deviation, n=3)).
Linking quorum sensing to cell survival could enable cell population control (FIG. 1A, right). […]

[8] = fitted value, major Paradaux line (1)
[9] = fitted value, second Paradaux line (2)

T1 sequence (P93830 65-132 limits assumed, stated change not applied): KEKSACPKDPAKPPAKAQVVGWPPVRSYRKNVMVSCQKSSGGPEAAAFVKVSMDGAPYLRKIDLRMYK
T1 sequence (Q7XVM8 whole entry, stated change not applied): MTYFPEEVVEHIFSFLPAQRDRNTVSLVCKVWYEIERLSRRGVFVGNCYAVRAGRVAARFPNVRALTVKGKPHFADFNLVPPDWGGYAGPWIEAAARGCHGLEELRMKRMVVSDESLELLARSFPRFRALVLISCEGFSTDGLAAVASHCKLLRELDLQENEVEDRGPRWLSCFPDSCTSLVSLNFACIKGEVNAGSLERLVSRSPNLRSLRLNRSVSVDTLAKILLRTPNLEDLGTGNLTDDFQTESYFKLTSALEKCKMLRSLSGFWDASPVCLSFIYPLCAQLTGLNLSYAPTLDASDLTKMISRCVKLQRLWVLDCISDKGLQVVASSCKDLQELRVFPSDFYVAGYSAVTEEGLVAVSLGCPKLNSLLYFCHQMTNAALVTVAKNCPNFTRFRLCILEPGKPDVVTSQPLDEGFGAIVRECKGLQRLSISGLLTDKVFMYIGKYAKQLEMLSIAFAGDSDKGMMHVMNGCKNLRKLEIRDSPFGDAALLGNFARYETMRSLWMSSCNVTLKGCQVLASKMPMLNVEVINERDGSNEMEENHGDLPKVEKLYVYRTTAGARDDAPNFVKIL
T1 sequence (Q9WTX5 whole entry partner): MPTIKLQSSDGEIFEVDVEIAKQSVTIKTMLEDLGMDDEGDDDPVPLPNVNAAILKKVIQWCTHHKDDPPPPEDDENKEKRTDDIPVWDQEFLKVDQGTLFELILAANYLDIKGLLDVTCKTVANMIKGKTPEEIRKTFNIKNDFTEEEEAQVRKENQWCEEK

CN(CC[C@H](N)CC(=O)N[C@H]1C=C[C@H](n2ccc(N)nc2=O)O[C@@H]1C(=O)O)C(=N)N [blasticidin]
n1, cooperativity of the blasticidin regulation [1, 8]: 2.26(1); DL
βB, maximum net growth reduction by blasticidin [1, 8]: 0.0874(1); hr^−1
κB, effective strength of blasticidin [1, 8]: 0.045(1); (μg/ml)^−1
n1, cooperativity of the blasticidin regulation [1, 9]: 2.28(2) DL
βB, maximum net growth reduction by blasticidin [1, 9]: 0.147(2) hr^−1
κB, effective strength of blasticidin [1, 9]: 0.069(2) (μg/ml)^−1

O=C(O)Cc1cccc2ccccc12 [NAA, 1-napthalenatic acid]
pEC50 [2]: 6.12

O=C(O)Cc1c[nH]c2ccccc12 [IAA, indole-3-acetic acid]
pEC50 [2]: 6.96
Effect on cell survival [3]: inhibit cell survival
Time to death of parental cells [4]: ≤ 3 days

auxin
Survival of Paradaux cells as a function of auxin ([1]; both blasticidin and AP1903): biphasic survival curve
κA, effective strength of auxin ([1]; fitted value): 1.316 µM⁻¹
Survival of Paradaux cells as a function of auxin ([1]; in the presence of AP1903): increased monotonically
Survival of Paradaux cells as a function of auxin ([1]; in the presence of blasticidin): decreased

NC(=O)Cc1c[nH]c2ccccc12 [IAM, indole-3-acetamide]
Reduction of mCherry-AID-BlastR in Receivers by media conditioned by Sender-Receivers with precursor [5]: comparable to those generated by saturating concentrations of IAA
Reporter fluorescence versus population density with precursor [6]: strong, but density-independent, decrease in fluorescence
Cell numbers at high seeding density versus no IAM or IAA [7]: reduced cell numbers

NC(=O)Cc1cccc2ccccc12 [NAM, 1-naphthaleneacetamide]
Reduction of mCherry-AID-BlastR in Receivers by media conditioned by Sender-Receivers with precursor [5]: diminished response compared to NAA
Reporter fluorescence versus population density with precursor [6]: decreased in response to increasing population density
